Experimental data as given in PubChem BioAssay AID624480 (The Scripps Research Institute Molecular Screening Center, 2012).
Calls of active or inactive are those of the source.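 How the source made its calls: active means inhibition of probe labeling in the gel above a set limit; inactive means inhibition at or below that limit.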

Each compound was assayed against Prolyl endopeptidase-like (Mus musculus) (UniProt Q8C167) (assay: PREPL inhibitors in brain proteome, biochemical, gel-based competitive ABPP, fluorescence, mouse, assay provider (AID 624480)). Settings: mouse brain proteome spiked PREPL, FP-Rh gel ABPP; at 50 µM; active compounds read high.
Sequence of Prolyl endopeptidase-like (Mus musculus) (Q8C167 whole entry, looked up): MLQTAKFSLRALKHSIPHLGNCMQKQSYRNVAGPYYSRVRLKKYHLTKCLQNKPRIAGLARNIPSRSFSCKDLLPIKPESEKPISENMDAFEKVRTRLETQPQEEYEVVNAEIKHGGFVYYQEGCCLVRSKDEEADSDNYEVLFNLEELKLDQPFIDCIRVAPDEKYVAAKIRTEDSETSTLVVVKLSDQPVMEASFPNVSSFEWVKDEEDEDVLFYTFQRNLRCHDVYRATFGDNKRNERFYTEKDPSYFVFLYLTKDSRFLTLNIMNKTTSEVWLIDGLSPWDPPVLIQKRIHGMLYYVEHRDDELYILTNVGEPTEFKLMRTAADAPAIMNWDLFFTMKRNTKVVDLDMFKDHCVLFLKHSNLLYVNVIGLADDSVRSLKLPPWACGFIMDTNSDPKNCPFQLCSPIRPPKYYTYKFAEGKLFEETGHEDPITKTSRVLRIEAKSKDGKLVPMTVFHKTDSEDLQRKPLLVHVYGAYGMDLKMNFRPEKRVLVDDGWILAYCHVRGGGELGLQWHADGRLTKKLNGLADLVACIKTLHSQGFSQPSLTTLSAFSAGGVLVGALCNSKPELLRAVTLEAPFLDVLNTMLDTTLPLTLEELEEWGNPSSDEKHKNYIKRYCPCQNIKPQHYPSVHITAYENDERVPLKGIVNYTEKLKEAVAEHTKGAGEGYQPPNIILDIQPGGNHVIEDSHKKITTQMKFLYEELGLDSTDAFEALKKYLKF
For COc1cc2nc(Nc3ccc(C)c(C)c3)nc(N)c2cc1OC, the inhibition was 17% (inactive). For O=C(Nc1ccc2c(c1)OCCO2)c1cccc2nc3ccccc3nc12, the inhibition was 15% (inactive). Compound N#Cc1c2c(c(-c3ccccc3)[nH]c1=O)CCCC2 has an inhibition of 41%. CC(C)Cc1[nH]c(=O)c(C#N)c2c1CCC2 was tested, and the inhibition was 70%. CCOc1ccc(CCNC(=O)c2ccc3c(=O)[nH]c4c(C(=O)NC(C)C)sc(=S)n4c3c2)cc1 gave an inhibition of 25%.
